Results taken from ChEMBL document CHEMBL3217463, “Design, synthesis and biological evaluation of -lactam hydroxamate based TACE inhibitors” (Medchemcomm, 2011).

Legend:
Rattus norvegicus [1] = assay: Elimination rate constant in Wistar rat at 5 mg/kg, po; assay type: ADME, organism-based; parameters: dose 5 mg/kg, route oral; details: in vivo
Rattus norvegicus [2] = assay: Toxicity in Wistar rat assessed as relative liver weight at 100 mg/kg, po bid for 28 days (reference value: 3.659 +/- 0.1 %); assay type: organism-based; parameters: dose 100 mg/kg, route oral; details: in vivo, 672 h
Matrilysin = biological target: T1, Matrilysin (Homo sapiens, UniProt P09237); assay: Inhibition of MMP7 (unknown origin) by fluorescence-based FRET assay
T1 sequence (P09237 whole entry): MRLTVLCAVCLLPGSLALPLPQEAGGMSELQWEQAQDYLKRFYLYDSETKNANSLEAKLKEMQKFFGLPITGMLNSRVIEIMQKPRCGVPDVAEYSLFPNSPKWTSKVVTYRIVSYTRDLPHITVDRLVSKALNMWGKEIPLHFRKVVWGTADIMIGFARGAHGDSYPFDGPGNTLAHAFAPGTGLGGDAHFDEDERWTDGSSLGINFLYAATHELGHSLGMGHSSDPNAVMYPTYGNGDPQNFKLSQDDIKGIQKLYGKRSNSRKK

Rattus norvegicus [3] = assay: Toxicity in Wistar rat assessed as alkaline phosphatase at 100 mg/kg, po bid for 28 days (reference value: 134.66 +/- 5.3 U/L); assay type: organism-based; parameters: dose 100 mg/kg, route oral; details: in vivo, 672 h
[4] = biological target: T2, Disintegrin and metalloproteinase domain-containing protein 17 (Homo sapiens, UniProt P78536); assay: Ratio of IC50 for human catalytic domain of TACE to IC50 for MMP2 (unknown origin)
T2 sequence (P78536 whole entry, the tested form may be a part): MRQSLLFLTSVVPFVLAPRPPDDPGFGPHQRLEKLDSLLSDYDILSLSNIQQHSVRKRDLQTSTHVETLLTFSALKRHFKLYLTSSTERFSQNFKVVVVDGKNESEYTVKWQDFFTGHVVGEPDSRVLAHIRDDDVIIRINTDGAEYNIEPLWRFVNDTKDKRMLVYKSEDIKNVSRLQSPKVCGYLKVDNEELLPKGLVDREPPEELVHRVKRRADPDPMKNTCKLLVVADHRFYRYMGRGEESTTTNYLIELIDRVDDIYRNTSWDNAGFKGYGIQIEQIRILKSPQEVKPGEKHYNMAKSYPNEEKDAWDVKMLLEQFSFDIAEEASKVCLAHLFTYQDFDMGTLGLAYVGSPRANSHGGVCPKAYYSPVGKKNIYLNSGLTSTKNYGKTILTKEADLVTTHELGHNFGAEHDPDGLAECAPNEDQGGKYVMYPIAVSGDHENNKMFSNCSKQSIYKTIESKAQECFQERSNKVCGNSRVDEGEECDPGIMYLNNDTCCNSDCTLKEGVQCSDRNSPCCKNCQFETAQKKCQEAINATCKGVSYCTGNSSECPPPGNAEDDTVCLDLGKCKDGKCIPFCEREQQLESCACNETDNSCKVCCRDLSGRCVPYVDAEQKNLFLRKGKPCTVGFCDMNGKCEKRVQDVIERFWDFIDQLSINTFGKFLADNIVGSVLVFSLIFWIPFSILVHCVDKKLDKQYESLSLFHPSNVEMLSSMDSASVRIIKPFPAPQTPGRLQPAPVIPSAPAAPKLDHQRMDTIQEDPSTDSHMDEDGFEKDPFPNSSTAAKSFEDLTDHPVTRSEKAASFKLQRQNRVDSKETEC

[5] = Elimination rate constant in Wistar rat at 5 mg/kg, iv; assay type: ADME, organism-based; parameters: dose 5 mg/kg, route intravenous; details: in vivo
[6] = Half life in Wistar rat at 5 mg/kg, iv; assay type: ADME, organism-based; parameters: dose 5 mg/kg, route intravenous; details: in vivo
[7] = biological target: T2, Disintegrin and metalloproteinase domain-containing protein 17; assay: Ratio of IC50 for human catalytic domain of TACE to IC50 for MMP7 (unknown origin)
Rattus norvegicus [8] = assay: Toxicity in Wistar rat assessed as food consumption at 100 mg/kg, po bid for 28 days; assay type: organism-based; parameters: dose 100 mg/kg, route oral; details: in vivo, 672 h
[9] = biological target: T2, Disintegrin and metalloproteinase domain-containing protein 17; assay: Inhibition of human catalytic domain of TACE assessed as inhibit the cleavage of the substrate by fluorescence-based FRET assay
Rattus norvegicus [10] = assay: Toxicity in Wistar rat assessed as adverse changes at 100 mg/kg, po bid for 28 days; assay type: organism-based; parameters: dose 100 mg/kg, route oral; details: in vivo, 672 h
Neutrophil collagenase = Neutrophil collagenase (Homo sapiens, UniProt P22894); assay: Inhibition of MMP8 (unknown origin) by fluorescence-based FRET assay
Chain of Neutrophil collagenase (P22894 whole entry): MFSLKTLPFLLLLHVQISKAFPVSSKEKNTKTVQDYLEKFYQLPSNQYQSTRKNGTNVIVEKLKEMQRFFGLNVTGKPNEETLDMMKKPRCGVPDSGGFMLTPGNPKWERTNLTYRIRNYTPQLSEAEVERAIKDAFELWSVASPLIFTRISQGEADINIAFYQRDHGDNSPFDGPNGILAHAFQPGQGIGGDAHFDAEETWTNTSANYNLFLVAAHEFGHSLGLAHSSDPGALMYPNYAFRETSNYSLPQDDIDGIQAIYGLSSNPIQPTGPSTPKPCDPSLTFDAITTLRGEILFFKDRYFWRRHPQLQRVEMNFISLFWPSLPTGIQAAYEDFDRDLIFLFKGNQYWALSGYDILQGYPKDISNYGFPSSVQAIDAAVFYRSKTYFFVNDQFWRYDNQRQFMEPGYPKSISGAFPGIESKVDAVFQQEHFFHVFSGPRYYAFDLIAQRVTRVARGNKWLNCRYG

Collagenase 3 = Collagenase 3 (Homo sapiens, UniProt P45452); assay: Inhibition of MMP13 (unknown origin) by fluorescence-based FRET assay
Blood = assay: Antiinflammatory activity in human whole blood assessed as inhibition of LPS-induced TNFalpha secretion by ELISA; assay type: functional, tissue-based
[11] = biological target: T2, Disintegrin and metalloproteinase domain-containing protein 17; assay: Ratio of IC50 for human catalytic domain of TACE to IC50 for MMP8 (unknown origin)

SMILES: COCCc1cc(COc2ccc([C@]3(N)CCN([C@H](CC(C)C)C(=O)NO)C3=O)cc2)c2ccccc2n1
- Kel (Rattus norvegicus [1]): 0.44 h⁻¹
- Activity (Rattus norvegicus [2]): 3.801%
- IC50 (Matrilysin): 1010 nM
- Activity (Rattus norvegicus [3]): 121.2 U/L
- Ratio IC50 [4]: > 500
- k el [5]: 0.000283 s⁻¹
- half-life [6]: 1.09 h
- Ratio IC50 [7]: > 500
- Activity (Rattus norvegicus [8]): Non-toxic
- IC50 [9]: 2.3 nM
- Activity (Rattus norvegicus [10]): Non-toxic
- IC50 (Neutrophil collagenase): 1000 nM
- IC50 (Collagenase 3): 1110 nM
- IC50 (Blood): 13 nM
- Ratio IC50 [11]: > 500
